What was measured:
[1] = molecular target: GDP-bound HRAS wild-type protein (Homo sapiens, UniProt P01112); experiment: Binding to HRAS by surface plasmon resonance (SPR), Single Cycle Kinetics; conditions: SPR, GDP-bound HRAS wild-type vs GDP-bound KRAS wild-type
[2] = molecular target: GDP-bound NRAS wild-type protein (Homo sapiens, UniProt P01111); experiment: Binding to NRAS by surface plasmon resonance (SPR), Single Cycle Kinetics; conditions: SPR, GDP-bound NRAS wild-type vs GDP-bound KRAS wild-type
Chain of GDP-bound NRAS wild-type protein (P01111 whole entry): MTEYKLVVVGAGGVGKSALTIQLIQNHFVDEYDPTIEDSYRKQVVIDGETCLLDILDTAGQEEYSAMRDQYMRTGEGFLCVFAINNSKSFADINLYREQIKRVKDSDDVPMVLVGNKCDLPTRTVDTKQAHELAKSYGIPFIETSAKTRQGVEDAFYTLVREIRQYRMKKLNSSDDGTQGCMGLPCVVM

Chain of GDP-bound HRAS wild-type protein (P01112 whole entry): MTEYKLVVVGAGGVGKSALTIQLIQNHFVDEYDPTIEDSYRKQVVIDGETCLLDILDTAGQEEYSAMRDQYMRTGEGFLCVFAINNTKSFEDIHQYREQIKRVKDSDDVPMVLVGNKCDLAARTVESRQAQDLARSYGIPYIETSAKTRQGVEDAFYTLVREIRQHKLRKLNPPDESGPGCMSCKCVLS

SMILES: CCO[C@@H]1C[C@H]2C(=O)NC3(CC(C)(C)C3)C(=O)N(C)[C@@H](C(CC)CC)C(=O)N(C)[C@H](C(=O)N(C)C)CC(=O)N(C)[C@@H](CC(C)C)C(=O)N[C@@H]([C@@H](C)CC)C(=O)N(C)CC(=O)N(C)[C@H]3C/C=C\CCN(C3=O)[C@@H](Cc3ccc(C(F)(F)F)cc3)C(=O)N(C)CC(=O)N[C@@H](CCc3ccc(Cl)c(Cl)c3)C(=O)N2C1 [PP2176]
- HRAS/KRAS (ratio of KD value with respect to HRAS to KD value with respect to KRAS) [1]: A (a compound having 10 or more and less than 20 is denoted as A)
- NRAS/KRAS (ratio of KD value with respect to NRAS to KD value with respect to KRAS) [2]: AA (a compound having 20 or more is denoted as AA)

SMILES: CCO[C@@H]1C[C@H]2C(=O)NC3(CC(C)(C)C3)C(=O)N(C)[C@@H](C(CC)CC)C(=O)N(C)[C@H](C(=O)N3CCCC3)CC(=O)N(C)[C@@H](C)C(=O)N[C@@H]([C@@H](C)CC)C(=O)N(C)CC(=O)N(C)[C@H]3C/C=C\CCN(C3=O)[C@@H](Cc3ccc(C(F)(F)F)cc3)C(=O)N(C)CC(=O)N[C@@H](CCc3ccc(Cl)c(Cl)c3)C(=O)N2C1 [PP2178]
- HRAS/KRAS (ratio of KD value with respect to HRAS to KD value with respect to KRAS) [1]: A (a compound having 10 or more and less than 20 is denoted as A)
- NRAS/KRAS (ratio of KD value with respect to NRAS to KD value with respect to KRAS) [2]: AA (a compound having 20 or more is denoted as AA)

SMILES: CCO[C@@H]1C[C@H]2C(=O)NC3(CC(C)(C)C3)C(=O)N(C)[C@@H](C(CC)CC)C(=O)N(C)[C@H](C(=O)N(C)C)CC(=O)N(C)[C@@H](CC)C(=O)N[C@@H]([C@@H](C)CC)C(=O)N(C)CC(=O)N(C)[C@H]3C/C=C\CCN(C3=O)[C@@H](Cc3ccc(C(F)(F)F)cc3)C(=O)N(C)CC(=O)N[C@@H](CCc3ccc(Cl)c(Cl)c3)C(=O)N2C1 [PP2179]
- HRAS/KRAS (ratio of KD value with respect to HRAS to KD value with respect to KRAS) [1]: A (a compound having 10 or more and less than 20 is denoted as A)
- NRAS/KRAS (ratio of KD value with respect to NRAS to KD value with respect to KRAS) [2]: AA (a compound having 20 or more is denoted as AA)

SMILES: CCO[C@@H]1C[C@H]2C(=O)NC3(CC(C)(C)C3)C(=O)N(C)[C@@H](C(CC)CC)C(=O)N(C)[C@H](C(=O)N(C)C)CC(=O)N(C)[C@@H](CC3CCC3)C(=O)N[C@@H]([C@@H](C)CC)C(=O)N(C)CC(=O)N(C)[C@H]3C/C=C\CCN(C3=O)[C@@H](Cc3ccc(C(F)(F)F)cc3)C(=O)N(C)CC(=O)N[C@@H](CCc3ccc(Cl)c(Cl)c3)C(=O)N2C1 [PP2180]
- HRAS/KRAS (ratio of KD value with respect to HRAS to KD value with respect to KRAS) [1]: A (a compound having 10 or more and less than 20 is denoted as A)
- NRAS/KRAS (ratio of KD value with respect to NRAS to KD value with respect to KRAS) [2]: AA (a compound having 20 or more is denoted as AA)

SMILES: CCO[C@@H]1C[C@H]2C(=O)NC3(CC(C)(C)C3)C(=O)N(C)[C@@H](C(CC)CC)C(=O)N(C)[C@H](C(=O)N(C)C)CC(=O)N(C)[C@@H](C(C)C)C(=O)N[C@@H]([C@@H](C)CC)C(=O)N(C)CC(=O)N(C)[C@H]3C/C=C\CCN(C3=O)[C@@H](Cc3ccc(C(F)(F)F)cc3)C(=O)N(C)CC(=O)N[C@@H](CCc3ccc(Cl)c(Cl)c3)C(=O)N2C1 [PP2181]
- HRAS/KRAS (ratio of KD value with respect to HRAS to KD value with respect to KRAS) [1]: A (a compound having 10 or more and less than 20 is denoted as A)
- NRAS/KRAS (ratio of KD value with respect to NRAS to KD value with respect to KRAS) [2]: AA (a compound having 20 or more is denoted as AA)

SMILES: CCO[C@@H]1C[C@H]2C(=O)NC3(CC(C)(C)C3)C(=O)N(C)[C@@H](C(CC)CC)C(=O)N(C)[C@H](C(=O)N(C)C)CC(=O)N(C)[C@@H](CC3CC3)C(=O)N[C@@H]([C@@H](C)CC)C(=O)N(C)CC(=O)N(C)[C@H]3C/C=C\CCN(C3=O)[C@@H](Cc3ccc(C)cc3)C(=O)N(C)CC(=O)N[C@@H](CCc3ccc(Cl)c(Cl)c3)C(=O)N2C1 [PP2182]
- HRAS/KRAS (ratio of KD value with respect to HRAS to KD value with respect to KRAS) [1]: A (a compound having 10 or more and less than 20 is denoted as A)
- NRAS/KRAS (ratio of KD value with respect to NRAS to KD value with respect to KRAS) [2]: AA (a compound having 20 or more is denoted as AA)

SMILES: CCC[C@H]1C(=O)N[C@@H]([C@@H](C)CC)C(=O)N(C)CC(=O)N(C)[C@H]2C/C=C\CCN(C2=O)[C@@H](Cc2ccc(C)cc2)C(=O)N(C)CC(=O)N[C@@H](CCc2ccc(Cl)c(Cl)c2)C(=O)N2C[C@H](OCC)C[C@H]2C(=O)NC2(CC(C)(C)C2)C(=O)N(C)[C@@H](C(CC)CC)C(=O)N(C)[C@H](C(=O)N(C)C)CC(=O)N1C [PP2184]
- HRAS/KRAS (ratio of KD value with respect to HRAS to KD value with respect to KRAS) [1]: A (a compound having 10 or more and less than 20 is denoted as A)
- NRAS/KRAS (ratio of KD value with respect to NRAS to KD value with respect to KRAS) [2]: AA (a compound having 20 or more is denoted as AA)

SMILES: CCO[C@@H]1C[C@H]2C(=O)NC3(CC(C)(C)C3)C(=O)N(C)[C@@H](C(CC)CC)C(=O)N(C)[C@H](C(=O)N(C)C)CC(=O)N(C)[C@@H](CC(C)C)C(=O)N[C@@H]([C@@H](C)CC)C(=O)N(C)CC(=O)N(C)[C@H]3C/C=C\CCN(C3=O)[C@@H](Cc3ccc(C)cc3)C(=O)N(C)CC(=O)N[C@@H](CCc3ccc(Cl)c(Cl)c3)C(=O)N2C1 [PP2185]
- HRAS/KRAS (ratio of KD value with respect to HRAS to KD value with respect to KRAS) [1]: A (a compound having 10 or more and less than 20 is denoted as A)
- NRAS/KRAS (ratio of KD value with respect to NRAS to KD value with respect to KRAS) [2]: AA (a compound having 20 or more is denoted as AA)

SMILES: CCO[C@@H]1C[C@H]2C(=O)NC3(CC(C)(C)C3)C(=O)N(C)[C@@H](C(CC)CC)C(=O)N(C)[C@H](C(=O)N(C)C)CC(=O)N(C)[C@@H](C)C(=O)N[C@@H]([C@@H](C)CC)C(=O)N(C)CC(=O)N(C)[C@H]3C/C=C\CCN(C3=O)[C@@H](Cc3ccc(C)cc3)C(=O)N(C)CC(=O)N[C@@H](CCc3ccc(Cl)c(Cl)c3)C(=O)N2C1 [PP2186]
- HRAS/KRAS (ratio of KD value with respect to HRAS to KD value with respect to KRAS) [1]: A (a compound having 10 or more and less than 20 is denoted as A)
- NRAS/KRAS (ratio of KD value with respect to NRAS to KD value with respect to KRAS) [2]: AA (a compound having 20 or more is denoted as AA)

SMILES: CCO[C@@H]1C[C@H]2C(=O)NC3(CC(C)(C)C3)C(=O)N(C)[C@@H](C(CC)CC)C(=O)N(C)[C@H](C(=O)N3CCCC3)CC(=O)N(C)[C@@H](C)C(=O)N[C@@H]([C@@H](C)CC)C(=O)N(C)CC(=O)N(C)[C@H]3C/C=C\CCN(C3=O)[C@@H](Cc3ccc(C)cc3)C(=O)N(C)CC(=O)N[C@@H](CCc3ccc(Cl)c(Cl)c3)C(=O)N2C1 [PP2187]
- HRAS/KRAS (ratio of KD value with respect to HRAS to KD value with respect to KRAS) [1]: A (a compound having 10 or more and less than 20 is denoted as A)
- NRAS/KRAS (ratio of KD value with respect to NRAS to KD value with respect to KRAS) [2]: AA (a compound having 20 or more is denoted as AA)

SMILES: CCO[C@@H]1C[C@H]2C(=O)NC3(CC(C)(C)C3)C(=O)N(C)[C@@H](C(CC)CC)C(=O)N(C)[C@H](C(=O)N(C)C)CC(=O)N(C)[C@@H](CC)C(=O)N[C@@H]([C@@H](C)CC)C(=O)N(C)CC(=O)N(C)[C@H]3C/C=C\CCN(C3=O)[C@@H](Cc3ccc(C)cc3)C(=O)N(C)CC(=O)N[C@@H](CCc3ccc(Cl)c(Cl)c3)C(=O)N2C1 [PP2188]
- HRAS/KRAS (ratio of KD value with respect to HRAS to KD value with respect to KRAS) [1]: A (a compound having 10 or more and less than 20 is denoted as A)
- NRAS/KRAS (ratio of KD value with respect to NRAS to KD value with respect to KRAS) [2]: AA (a compound having 20 or more is denoted as AA)

SMILES: CC[C@H](C)[C@@H]1NC(=O)[C@H](CC(C)C)N(C)C(=O)C[C@@H](C(=O)N(C)C)N(C)C(=O)[C@H](C2CCCC2)N(C)C(=O)C2(CCCC2)NC(=O)[C@@H]2C[C@@H](C)CN2C(=O)[C@H](CCc2cc(F)c(C(F)(F)F)c(F)c2)NC(=O)CN(C)C(=O)[C@H](Cc2ccc(C)cc2)N2CC/C=C\C[C@@H](C2=O)N(C)C(=O)CN(C)C1=O [PP2189]
- HRAS/KRAS (ratio of KD value with respect to HRAS to KD value with respect to KRAS) [1]: A (a compound having 10 or more and less than 20 is denoted as A)
- NRAS/KRAS (ratio of KD value with respect to NRAS to KD value with respect to KRAS) [2]: A (a compound having 10 or more and less than 20 is denoted as A)

SMILES: CCC[C@H]1C(=O)N[C@@H](C2CCCC2)C(=O)N(C)CC(=O)N(C)[C@H]2C/C=C\CCN(C2=O)[C@@H](Cc2ccc(C)cc2)C(=O)N(C)CC(=O)N[C@@H](CCc2ccc(C(F)(F)F)c(Cl)c2)C(=O)N2C[C@H](OCC)C[C@H]2C(=O)NC2(CC(C)(C)C2)C(=O)N(C)[C@@H](CC(C)C)C(=O)N(C)[C@H](C(=O)N(C)C)CC(=O)N1C [PP2190]
- HRAS/KRAS (ratio of KD value with respect to HRAS to KD value with respect to KRAS) [1]: A (a compound having 10 or more and less than 20 is denoted as A)
- NRAS/KRAS (ratio of KD value with respect to NRAS to KD value with respect to KRAS) [2]: A (a compound having 10 or more and less than 20 is denoted as A)

SMILES: CC[C@@H]1C[C@H]2C(=O)NC3(CCCC3)C(=O)N(C)[C@@H](C3CCCC3)C(=O)N(C)[C@H](C(=O)N(C)C)CC(=O)N(C)[C@@H](CC(C)C)C(=O)N[C@@H]([C@@H](C)CC)C(=O)N(C)CC(=O)N(C)[C@H]3C/C=C\CCN(C3=O)[C@@H](Cc3ccc(C)cc3)C(=O)N(C)CC(=O)N[C@@H](CCc3cc(F)c(C(F)(F)F)c(F)c3)C(=O)N2C1 [PP2191]
- HRAS/KRAS (ratio of KD value with respect to HRAS to KD value with respect to KRAS) [1]: B (a compound having 3 or more and less than 10 is denoted as B)
- NRAS/KRAS (ratio of KD value with respect to NRAS to KD value with respect to KRAS) [2]: A (a compound having 10 or more and less than 20 is denoted as A)

SMILES: CCC[C@H]1C(=O)N[C@@H](C2CCCC2)C(=O)N(C)CC(=O)N(C)[C@H]2C/C=C\CCN(C2=O)[C@@H](Cc2ccc(C)cc2)C(=O)N(C)CC(=O)N[C@@H](CCc2ccc(C(F)(F)F)c(Cl)c2)C(=O)N2C[C@H](OCC)C[C@H]2C(=O)NC2(CC(C)(C)C2)C(=O)N(C)[C@@H](CC(F)(F)F)C(=O)N(C)[C@H](C(=O)N(C)C)CC(=O)N1C [PP2192]
- HRAS/KRAS (ratio of KD value with respect to HRAS to KD value with respect to KRAS) [1]: A (a compound having 10 or more and less than 20 is denoted as A)
- NRAS/KRAS (ratio of KD value with respect to NRAS to KD value with respect to KRAS) [2]: A (a compound having 10 or more and less than 20 is denoted as A)

SMILES: CCC[C@@H]1C[C@H]2C(=O)NC3(CCCC3)C(=O)N(C)[C@@H](C3CCCC3)C(=O)N(C)[C@H](C(=O)N(C)C)CC(=O)N(C)[C@@H](CC(C)C)C(=O)N[C@@H]([C@@H](C)CC)C(=O)N(C)CC(=O)N(C)[C@H]3C/C=C\CCN(C3=O)[C@@H](Cc3ccc(C)cc3)C(=O)N(C)CC(=O)N[C@@H](CCc3cc(F)c(C(F)(F)F)c(F)c3)C(=O)N2C1 [PP2193]
- HRAS/KRAS (ratio of KD value with respect to HRAS to KD value with respect to KRAS) [1]: A (a compound having 10 or more and less than 20 is denoted as A)
- NRAS/KRAS (ratio of KD value with respect to NRAS to KD value with respect to KRAS) [2]: A (a compound having 10 or more and less than 20 is denoted as A)

Source: patent publication US20250230193A1, “CYCLIC COMPOUND HAVING SELECTIVE KRAS INHIBITORY EFFECT ON HRAS AND NRAS” (CHUGAI SEIYAKU KABUSHIKI KAISHA, priority 2022, published 2025)
